{"source": "paper PMC5218480", "about": "(PLoS ONE, 2017)", "test_system": "MV-4-11 cells", "experiment": "Gene expression microarray analysis (Affymetrix PrimeView) and GSEA", "format": "cell-based, human", "design": "RFU PODN (11730768_x_at) / Fold change /veh PODN (11730768_x_at) / RFU LINC00158 (11744669_a_at) / Fold change /veh LINC00158 (11744669_a_at) / RFU DUSP10 (11751237_a_at) / Fold change /veh DUSP10 (11751237_a_at) / RFU ID3 (11757404_x_at) / Fold change /veh ID3 (11757404_x_at) / RFU PLEKHG5 (11737974_s_at) / Fold change /veh PLEKHG5 (11737974_s_at) / RFU LRRC4B (11730491_at) / Fold change /veh LRRC4B (11730491_at) / RFU GIMAP4 (11747438_a_at) / Fold change /veh GIMAP4 (11747438_a_at) / RFU KRT8 (11758183_x_at) / Fold change /veh KRT8 (11758183_x_at) / RFU CNN1 (11734310_a_at) / Fold change /veh CNN1 (11734310_a_at) / RFU VPS37D (11726825_at) / Fold change /veh VPS37D (11726825_at) / RFU C10orf10 (11716522_x_at) / Fold change /veh C10orf10 (11716522_x_at) / RFU KIR2DL2 /// KIR2DL4 /// KIR2DL5A /// KIR2DL5B /// KIR2DS1 /// KIR2DS2 /// KIR2DS3 /// KIR2DS4 /// KIR3DL3 /// KIR3DL3 /// KIR3DS1 (11738374_at) / Fold change /veh KIR2DL2 /// KIR2DL4 /// KIR2DL5A /// KIR2DL5B /// KIR2DS1 /// KIR2DS2 /// KIR2DS3 /// KIR2DS4 /// KIR3DL3 /// KIR3DL3 /// KIR3DS1 (11738374_at) / RFU C1QL1 (11718748_at) / Fold change /veh C1QL1 (11718748_at) / RFU TMPRSS4 (11747572_a_at) / Fold change /veh TMPRSS4 (11747572_a_at) / RFU HAMP (11756126_x_at) / Fold change /veh HAMP (11756126_x_at) / RFU RNFT2 (11725882_a_at) / Fold change /veh RNFT2 (11725882_a_at) / RFU NR4A2 (11747474_a_at) / Fold change /veh NR4A2 (11747474_a_at) / RFU ABCC12 (11746883_a_at) / Fold change /veh ABCC12 (11746883_a_at) / RFU TMEM136 (11760407_x_at) / Fold change /veh TMEM136 (11760407_x_at) / RFU CLDN22 /// WWC2 (11732394_at) / Fold change /veh CLDN22 /// WWC2 (11732394_at) / RFU HLA-DPB1 (11760878_x_at) / Fold change /veh HLA-DPB1 (11760878_x_at) / RFU SPINT1 (11716480_a_at) / Fold change /veh SPINT1 (11716480_a_at) / RFU GAP43 (11754022_s_at) / Fold change /veh GAP43 (11754022_s_at) / RFU A4GNT (11735810_at) / Fold change /veh A4GNT (11735810_at) / RFU PRB3 (11715151_x_at) / Fold change /veh PRB3 (11715151_x_at) / RFU TUBB4B (11761932_at) / Fold change /veh TUBB4B (11761932_at) / RFU CAPN14 (11732068_a_at) / Fold change /veh CAPN14 (11732068_a_at) / RFU TMCC2 (11721928_a_at) / Fold change /veh TMCC2 (11721928_a_at) / RFU IRGQ (11745062_a_at) / Fold change /veh IRGQ (11745062_a_at) / RFU FAM174B (11720279_a_at) / Fold change /veh FAM174B (11720279_a_at) / RFU TMPRSS4 (11748680_a_at) / Fold change /veh TMPRSS4 (11748680_a_at) / RFU FAM212B (11763350_a_at) / Fold change /veh FAM212B (11763350_a_at) / RFU PLEKHG5 (11743358_a_at) / Fold change /veh PLEKHG5 (11743358_a_at) / RFU ZSCAN30 (11745921_a_at) / Fold change /veh ZSCAN30 (11745921_a_at) / RFU CMKLR1 (11741424_a_at) / Fold change /veh CMKLR1 (11741424_a_at) / RFU LOC101060620 /// MAPK8IP1 (11723275_at) / Fold change /veh LOC101060620 /// MAPK8IP1 (11723275_at) / RFU SPTSSB (11747773_x_at) / Fold change /veh SPTSSB (11747773_x_at) / RFU PRSS12 (11739890_at) / Fold change /veh PRSS12 (11739890_at) / RFU BIN1 (11741810_x_at) / Fold change /veh BIN1 (11741810_x_at) / RFU WNT11 (11732464_a_at) / Fold change /veh WNT11 (11732464_a_at) / RFU C10orf10 (11716521_a_at) / Fold change /veh C10orf10 (11716521_a_at) / RFU C5orf56 (11738089_at) / Fold change /veh C5orf56 (11738089_at) / RFU CYB561 (11721691_x_at) / Fold change /veh CYB561 (11721691_x_at) / RFU ANKRD19P (11752326_a_at) / Fold change /veh ANKRD19P (11752326_a_at) / RFU OR2T12 /// OR2T33 /// OR2T8 (11738714_s_at) / Fold change /veh OR2T12 /// OR2T33 /// OR2T8 (11738714_s_at) / RFU VCAN (11748164_a_at) / Fold change /veh VCAN (11748164_a_at) / RFU JSRP1 (11732532_at) / Fold change /veh JSRP1 (11732532_at) / RFU KRTAP10-11 (11738290_x_at) / Fold change /veh KRTAP10-11 (11738290_x_at) / RFU MYO3A (11730013_a_at) / Fold change /veh MYO3A (11730013_a_at) / RFU EBF3 (11725865_a_at) / Fold change /veh EBF3 (11725865_a_at) / RFU CAMK2N1 (11719241_x_at) / Fold change /veh CAMK2N1 (11719241_x_at) / RFU C5orf56 (11738088_a_at) / Fold change /veh C5orf56 (11738088_a_at) / RFU OLFML3 (11715873_a_at) / Fold change /veh OLFML3 (11715873_a_at) / RFU LOC100653217 /// NTM (11731650_a_at) / Fold change /veh LOC100653217 /// NTM (11731650_a_at) / RFU MAPK11 (11762145_a_at) / Fold change /veh MAPK11 (11762145_a_at) / RFU FIZ1 (11724087_x_at) / Fold change /veh FIZ1 (11724087_x_at) / RFU OASL (11726364_x_at) / Fold change /veh OASL (11726364_x_at) / RFU SOX15 (11748057_x_at) / Fold change /veh SOX15 (11748057_x_at) / RFU CD79A (11719716_a_at) / Fold change /veh CD79A (11719716_a_at) / RFU HIST1H1D (11736915_at) / Fold change /veh HIST1H1D (11736915_at) / RFU CASKIN2 (11723855_a_at) / Fold change /veh CASKIN2 (11723855_a_at) / RFU LOC730098 (11760151_x_at) / Fold change /veh LOC730098 (11760151_x_at) / RFU OR4N2 (11742367_at) / Fold change /veh OR4N2 (11742367_at) / RFU PRRT2 (11749266_a_at) / Fold change /veh PRRT2 (11749266_a_at) / RFU SNX32 (11753110_a_at) / Fold change /veh SNX32 (11753110_a_at) / RFU CDHR5 (11726645_a_at) / Fold change /veh CDHR5 (11726645_a_at) / RFU RCAN1 (11760418_a_at) / Fold change /veh RCAN1 (11760418_a_at) / RFU FAM167A (11723789_a_at) / Fold change /veh FAM167A (11723789_a_at) / RFU FAM26E (11764081_at) / Fold change /veh FAM26E (11764081_at) / RFU ISYNA1 (11749810_s_at) / Fold change /veh ISYNA1 (11749810_s_at) / RFU ACY1 (11761880_at) / Fold change /veh ACY1 (11761880_at) / RFU 11764098_at / Fold change /veh 11764098_at / RFU SAMD14 (11745864_x_at) / Fold change /veh SAMD14 (11745864_x_at) / RFU NPB (11741838_a_at) / Fold change /veh NPB (11741838_a_at) / RFU TMPRSS6 (11731388_a_at) / Fold change /veh TMPRSS6 (11731388_a_at) / RFU KRTAP10-2 (11738614_at) / Fold change /veh KRTAP10-2 (11738614_at) / RFU ARHGAP8 /// PRR5-ARHGAP8 (11727945_x_at) / Fold change /veh ARHGAP8 /// PRR5-ARHGAP8 (11727945_x_at) / RFU KRTAP5-7 /// NADSYN1 (11734609_at) / Fold change /veh KRTAP5-7 /// NADSYN1 (11734609_at) / RFU RASL12 (11751679_a_at) / Fold change /veh RASL12 (11751679_a_at) / RFU CDKN2B (11736163_a_at) / Fold change /veh CDKN2B (11736163_a_at) / RFU PRF1 (11729649_at) / Fold change /veh PRF1 (11729649_at) / RFU, ZNF638 /// ZNF638-IT1 / Fold change vs veh, ZNF638 /// ZNF638-IT1 / RFU, PANK3 / Fold change vs veh, PANK3 / RFU, SH3YL1 / Fold change vs veh, SH3YL1 / RFU, ZEB2 / Fold change vs veh, ZEB2 / RFU, NRIP1 / Fold change vs veh, NRIP1 / RFU, PTTG1IP / Fold change vs veh, PTTG1IP / RFU, CAPN2 / Fold change vs veh, CAPN2 / RFU, MED14 / Fold change vs veh, MED14 / RFU, SNORA58 / Fold change vs veh, SNORA58 / RFU, C1orf63 / Fold change vs veh, C1orf63 / RFU, LRRFIP1 / Fold change vs veh, LRRFIP1 / RFU, NDUFAF7 / Fold change vs veh, NDUFAF7 / RFU, SLC12A2 / Fold change vs veh, SLC12A2 / RFU, IBTK / Fold change vs veh, IBTK / RFU, ESF1 / Fold change vs veh, ESF1 / Fold change vs veh, TMEM50B / RFU, TAOK1 / Fold change vs veh, TAOK1 / RFU, ACBD3 / Fold change vs veh, ACBD3 / RFU, TMA16 / Fold change vs veh, TMA16 / RFU, RWDD3 / Fold change vs veh, RWDD3 / RFU, BCAT1 / Fold change vs veh, BCAT1 / RFU, EDEM3 / Fold change vs veh, EDEM3 / RFU, TMEM33 / Fold change vs veh, TMEM33 / RFU, WDR75 / Fold change vs veh, WDR75 / RFU, AHCTF1 / Fold change vs veh, AHCTF1 / RFU, TFRC / Fold change vs veh, TFRC / RFU, ZDHHC17 / Fold change vs veh, ZDHHC17 / RFU, NOM1 / Fold change vs veh, NOM1 / RFU, ARL8B / Fold change vs veh, ARL8B / RFU, ZBTB11 / Fold change vs veh, ZBTB11 / RFU, TAMM41 / Fold change vs veh, TAMM41 / RFU, KIAA1704 /// LOC100996395 / Fold change vs veh, KIAA1704 /// LOC100996395 / RFU, ING1 / Fold change vs veh, ING1 / RFU, TRMT61B / Fold change vs veh, TRMT61B / RFU, FUBP3 / Fold change vs veh, FUBP3 / RFU, TP53 / Fold change vs veh, TP53 / RFU, TNKS2 / Fold change vs veh, TNKS2 / RFU, ZFP14 / Fold change vs veh, ZFP14 / RFU, ACTR2 / Fold change vs veh, ACTR2 / RFU, PPP3R1 / Fold change vs veh, PPP3R1 / RFU, PIK3R1 / Fold change vs veh, PIK3R1 / RFU, HNRNPA1 / Fold change vs veh, HNRNPA1 / RFU, RNF170 / Fold change vs veh, RNF170 / RFU, ZNF28 / Fold change vs veh, ZNF28 / RFU, RNGTT / Fold change vs veh, RNGTT / RFU, OGT / Fold change vs veh, OGT / RFU, BRD1 / Fold change vs veh, BRD1 / RFU, MARS / Fold change vs veh, MARS / RFU, ZNF655 / Fold change vs veh, ZNF655 / RFU, FAHD1 / Fold change vs veh, FAHD1 / RFU, BDP1 / Fold change vs veh, BDP1 / RFU, LRRCC1 / Fold change vs veh, LRRCC1 / RFU, ARID1A / Fold change vs veh, ARID1A / RFU, ZNF146 / Fold change vs veh, ZNF146 / RFU, ZNF330 / Fold change vs veh, ZNF330 / RFU, GPN3 / Fold change vs veh, GPN3 / RFU, C9orf123 / Fold change vs veh, C9orf123 / RFU, N4BP2L2 / Fold change vs veh, N4BP2L2 / RFU, ARFIP1 / Fold change vs veh, ARFIP1 / RFU, FAM179B / Fold change vs veh, FAM179B / RFU, BCL10 / Fold change vs veh, BCL10 / RFU, UHRF1BP1L / Fold change vs veh, UHRF1BP1L / RFU, BET1 / Fold change vs veh, BET1 / RFU, CNOT2 / Fold change vs veh, CNOT2 / RFU, ZNF268 / Fold change vs veh, ZNF268 / Fold change vs veh, ZNF507 / RFU, DGCR2 / Fold change vs veh, DGCR2 / RFU, WDSUB1 / Fold change vs veh, WDSUB1 / Fold change vs veh, HSP90B1 /// MIR3652 / RFU, ADSS / Fold change vs veh, ADSS / RFU, GK / Fold change vs veh, GK / RFU, ZNF148 / Fold change vs veh, ZNF148 / RFU, TAF9 / Fold change vs veh, TAF9 / RFU, SLC1A5 / Fold change vs veh, SLC1A5 / RFU, SLMO2 / Fold change vs veh, SLMO2 / RFU, ABCC4 / Fold change vs veh, ABCC4 / RFU, LOC101060439 /// RAP1B / Fold change vs veh, LOC101060439 /// RAP1B / RFU, RFX7 / Fold change vs veh, RFX7 / RFU, GTPBP10 / Fold change vs veh, GTPBP10 / RFU, CNEP1R1 / Fold change vs veh, CNEP1R1 / RFU, BIVM-ERCC5 /// ERCC5 / Fold change vs veh, BIVM-ERCC5 /// ERCC5 / RFU, ILF3 / Fold change vs veh, ILF3 / RFU 11762660_at / Fold change /veh 11762660_at / RFU VCAN (11757783_s_at) / Fold change /veh VCAN (11757783_s_at) / RFU DDX43 (11728927_at) / Fold change /veh DDX43 (11728927_at) / RFU KRT8 (11758188_x_at) / Fold change /veh KRT8 (11758188_x_at) / RFU NKD1 (11759106_at) / Fold change /veh NKD1 (11759106_at) / RFU SRD5A1 (11742802_a_at) / Fold change /veh SRD5A1 (11742802_a_at) / RFU TPSAB1 /// TPSB2 (11721975_s_at) / Fold change /veh TPSAB1 /// TPSB2 (11721975_s_at) / RFU GSTM3 (11746129_a_at) / Fold change /veh GSTM3 (11746129_a_at) / RFU IL23R (11737362_x_at) / Fold change /veh IL23R (11737362_x_at) / RFU TMEM51 (11727254_a_at) / Fold change /veh TMEM51 (11727254_a_at) / RFU PIWIL2 (11732686_x_at) / Fold change /veh PIWIL2 (11732686_x_at) / RFU ORM1 (11744905_x_at) / Fold change /veh ORM1 (11744905_x_at) / RFU CCDC152 (11743942_at) / Fold change /veh CCDC152 (11743942_at) / RFU ECM1 (11717891_a_at) / Fold change /veh ECM1 (11717891_a_at) / RFU IL23R (11748794_a_at) / Fold change /veh IL23R (11748794_a_at) / RFU TNFAIP8L3 (11732012_x_at) / Fold change /veh TNFAIP8L3 (11732012_x_at) / RFU MBOAT4 (11741988_at) / Fold change /veh MBOAT4 (11741988_at) / RFU 11764193_at / Fold change /veh 11764193_at / RFU TMEM53 (11763286_at) / Fold change /veh TMEM53 (11763286_at) / RFU MAGEB2 (11727129_at) / Fold change /veh MAGEB2 (11727129_at) / RFU TMEM200A (11744735_a_at) / Fold change /veh TMEM200A (11744735_a_at) / RFU CCDC152 (11751479_a_at) / Fold change /veh CCDC152 (11751479_a_at) / RFU FAM211A (11726209_a_at) / Fold change /veh FAM211A (11726209_a_at) / RFU RGS16 (11746705_a_at) / Fold change /veh RGS16 (11746705_a_at) / RFU VCAN (11755009_s_at) / Fold change /veh VCAN (11755009_s_at) / RFU RHOB (11743442_s_at) / Fold change /veh RHOB (11743442_s_at) / RFU RGS16 (11720943_a_at) / Fold change /veh RGS16 (11720943_a_at) / RFU RGS16 (11720944_at) / Fold change /veh RGS16 (11720944_at) / RFU, VPS4B / Fold change vs veh, VPS4B / RFU, CREB1 / Fold change vs veh, CREB1 / RFU, DNAJC13 / Fold change vs veh, DNAJC13 / RFU, GNAQ / Fold change vs veh, GNAQ / RFU, CDK5R1 / Fold change vs veh, CDK5R1 / RFU, ZRANB3 / Fold change vs veh, ZRANB3 / RFU, CUL4A / Fold change vs veh, CUL4A / RFU, CCNY / Fold change vs veh, CCNY / RFU, UFL1 / Fold change vs veh, UFL1 / RFU, COG3 / Fold change vs veh, COG3 / RFU, DIAPH2 / Fold change vs veh, DIAPH2 / RFU, SKA2 / Fold change vs veh, SKA2 / RFU, AFF3 / Fold change vs veh, AFF3 / RFU, LMF1 / Fold change vs veh, LMF1 / RFU, IPO11 / Fold change vs veh, IPO11 / RFU, DFFB / Fold change vs veh, DFFB / RFU, FOXP1 / Fold change vs veh, FOXP1 / RFU, CARD8 / Fold change vs veh, CARD8 / RFU, STRN3 / Fold change vs veh, STRN3 / RFU, ADK / Fold change vs veh, ADK / RFU, RASSF2 / Fold change vs veh, RASSF2 / RFU, WIPF1 / Fold change vs veh, WIPF1 / RFU, LARP1B / Fold change vs veh, LARP1B / RFU, RASA1 / Fold change vs veh, RASA1 / RFU, RB1 / Fold change vs veh, RB1 / RFU, PPFIA1 / Fold change vs veh, PPFIA1 / RFU, MAT2A / Fold change vs veh, MAT2A / RFU, CCT5 / Fold change vs veh, CCT5 / RFU, WDR92 / Fold change vs veh, WDR92 / RFU, CUX1 / Fold change vs veh, CUX1 / RFU, TTC7A / Fold change vs veh, TTC7A / RFU, TMEM135 / Fold change vs veh, TMEM135 / RFU, DEPTOR / Fold change vs veh, DEPTOR / RFU, CPM / Fold change vs veh, CPM / RFU, DNAJB6 / Fold change vs veh, DNAJB6 / RFU, CACNA2D3 / Fold change vs veh, CACNA2D3 / RFU, DTX4 / Fold change vs veh, DTX4 / RFU, TFCP2 / Fold change vs veh, TFCP2 / RFU, GMCL1 /// GMCL1P1 / Fold change vs veh, GMCL1 /// GMCL1P1 / RFU, AEBP2 / Fold change vs veh, AEBP2 / RFU, SNHG1 /// SNORD22 /// SNORD25 /// SNORD26 /// SNORD27 /// SNORD28 /// SNORD29 /// SNORD31 / Fold change vs veh, SNHG1 /// SNORD22 /// SNORD25 /// SNORD26 /// SNORD27 /// SNORD28 /// SNORD29 /// SNORD31 / Fold change (Aza/veh), C12orf56 (ProbeSet 11735607_a_at) / Fold change (ACY-1035/veh), C12orf56 (ProbeSet 11735607_a_at) / Fold change (Aza/veh), FGFR1OP (ProbeSet 11751329_s_at) / Fold change (ACY-1035/veh), FGFR1OP (ProbeSet 11751329_s_at) / Fold change (Aza/veh), VPS36 (ProbeSet 11739960_a_at) / Fold change (ACY-1035/veh), VPS36 (ProbeSet 11739960_a_at) / RFU SYPL1 (11715823_x_at) / Fold change /veh SYPL1 (11715823_x_at) / RFU IGFBP7 (11715501_s_at) / Fold change /veh IGFBP7 (11715501_s_at) / RFU REEP3 (11722064_at) / Fold change /veh REEP3 (11722064_at) / RFU IGLL1 (11728026_x_at) / Fold change /veh IGLL1 (11728026_x_at): dose or concentration left out as unconfirmed", "details": "MV-4-11 cells, 48 hours"}
{"molecule": "Nc1ccc(-c2cccs2)cc1NC(=O)c1ccc2c(c1)cc(C1CC1)n2CCN1CCOCC1", "note": "[ACY-1035]", "values": [{"measurement": "RFU WNT11 (11732464_a_at)", "value": 8.64, "unit": "RFU"}]}
